The assay addresses T1, BRM (Homo sapiens, UniProt P51531).
T1 construct: In-Cell Western Screen of BRM Degradation in SW1573 Cells; endogenous in cells; host or cells: SW1573
The experiment in a line: In-cell Western screen of BRM degradation in SW1573 cells (Dmax and DC50). The settings on record: BRM degradation, SW1573 cells; for DC50: read-out: DC50; for Dmax: tested at the top concentration of between 0.3 and 10 μM, read-out: Dmax (%) (% degraded). The class given is cell-based. In a few lines: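 Adherent SW1573 cultures exposed to test compounds for 18-20 h were processed for in-cell Western after PFA fixation and detergent permeabilization. BRM degradation was reported as Dmax and DC50.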

T1 sequence (P51531 whole entry): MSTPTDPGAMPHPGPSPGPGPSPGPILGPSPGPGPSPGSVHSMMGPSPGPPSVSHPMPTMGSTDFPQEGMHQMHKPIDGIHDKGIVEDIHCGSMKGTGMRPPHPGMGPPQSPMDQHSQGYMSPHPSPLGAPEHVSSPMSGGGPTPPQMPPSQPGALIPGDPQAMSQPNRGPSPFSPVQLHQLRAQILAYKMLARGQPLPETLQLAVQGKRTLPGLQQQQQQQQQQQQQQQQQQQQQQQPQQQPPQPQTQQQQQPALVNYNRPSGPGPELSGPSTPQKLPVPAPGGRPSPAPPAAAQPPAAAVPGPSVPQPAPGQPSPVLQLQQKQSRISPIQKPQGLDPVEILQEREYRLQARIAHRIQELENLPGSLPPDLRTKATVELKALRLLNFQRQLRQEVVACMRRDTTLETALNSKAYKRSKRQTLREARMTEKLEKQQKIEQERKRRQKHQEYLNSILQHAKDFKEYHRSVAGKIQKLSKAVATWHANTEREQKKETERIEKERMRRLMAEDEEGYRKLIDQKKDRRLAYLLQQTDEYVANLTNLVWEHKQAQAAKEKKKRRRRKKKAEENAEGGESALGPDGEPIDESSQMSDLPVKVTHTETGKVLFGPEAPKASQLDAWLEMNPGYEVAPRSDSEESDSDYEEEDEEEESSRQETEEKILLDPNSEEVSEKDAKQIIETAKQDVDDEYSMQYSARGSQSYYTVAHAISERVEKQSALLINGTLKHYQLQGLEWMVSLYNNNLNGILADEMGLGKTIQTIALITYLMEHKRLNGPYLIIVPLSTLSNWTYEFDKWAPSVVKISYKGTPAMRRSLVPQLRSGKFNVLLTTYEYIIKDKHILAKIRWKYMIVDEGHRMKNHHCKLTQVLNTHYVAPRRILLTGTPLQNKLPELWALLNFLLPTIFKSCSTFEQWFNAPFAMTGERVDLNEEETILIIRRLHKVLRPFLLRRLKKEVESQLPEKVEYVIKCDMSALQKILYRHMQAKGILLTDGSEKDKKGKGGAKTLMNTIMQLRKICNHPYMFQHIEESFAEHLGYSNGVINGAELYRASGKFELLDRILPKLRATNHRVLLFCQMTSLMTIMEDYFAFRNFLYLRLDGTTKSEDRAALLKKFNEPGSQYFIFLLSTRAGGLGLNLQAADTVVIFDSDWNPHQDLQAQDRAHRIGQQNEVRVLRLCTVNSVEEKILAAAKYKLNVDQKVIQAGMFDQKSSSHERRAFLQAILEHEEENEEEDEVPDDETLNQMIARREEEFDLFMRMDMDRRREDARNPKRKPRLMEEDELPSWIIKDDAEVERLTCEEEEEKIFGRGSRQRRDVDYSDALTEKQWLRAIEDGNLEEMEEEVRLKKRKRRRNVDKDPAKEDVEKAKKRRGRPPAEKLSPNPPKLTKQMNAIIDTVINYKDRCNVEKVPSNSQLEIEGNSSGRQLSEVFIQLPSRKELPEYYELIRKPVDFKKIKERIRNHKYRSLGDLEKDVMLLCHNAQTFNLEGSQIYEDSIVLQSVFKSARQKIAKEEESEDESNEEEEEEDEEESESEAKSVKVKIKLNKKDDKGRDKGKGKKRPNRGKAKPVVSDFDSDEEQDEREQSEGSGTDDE

`Cc1ncsc1-c1ccc([C@H](C)NC(=O)[C@@H]2C[C@@H](O)CN2C(=O)[C@@H](c2cc(OCCOCCOCCOCCn3cc(-c4cc(-c5ccccc5O)nnc4N)cn3)no2)C(C)C)cc1` [compound 182, (2S,4R)-1-((R)-2-(3-(2-(2-(2-(2-(4-(3-amino-6-(2-hydroxyphenyl)pyridazin-4-yl)-1H-pyrazol-1-yl)ethoxy)ethoxy)ethoxy)ethoxy)isoxazol-5-yl)-3-methylbutanoyl)-4-hydroxy-N-((S)-1-(4-(4-methylthiazol-5-yl)phenyl)ethyl)pyrrolidine-2-carboxamide]: the DC50 (in general, the concentration giving 50% degradation) was 2.5 to 10 nM and the maximal degradation (Dmax) (commonly the largest share of the target that was removed) is above 75%.
For the molecule `Cc1ncsc1-c1ccc([C@H](C)NC(=O)[C@@H]2C[C@@H](O)CN2C(=O)[C@@H](NC(=O)COCCN2CCC(O[C@H]3C[C@H](Oc4cc(N5C6CCC5CN(c5cc(-c7ccccc7O)nnc5N)C6)ccn4)C3)CC2)C(C)(C)C)cc1` [compound 183, (2S,4R)-1-((2S)-2-(2-(2-(4-((1r,3S)-3-((4-(3-(3-amino-6-(2-hydroxyphenyl)pyridazin-4-yl)-3,8-diazabicyclo[3.2.1]octan-8-yl)pyridin-2-yl)oxy)cyclobutoxy)piperidin-1-yl)ethoxy)acetamido)-3,3-dimethylbutanoyl)-4-hydroxy-N-((S)-1-(4-(4-methylthiazol-5-yl)phenyl)ethyl)pyrrolidine-2-carboxamide], the DC50 is below 2.5 nM and the Dmax was above 75%.
As to `COCc1ncsc1-c1ccc([C@H](C)NC(=O)[C@@H]2C[C@@H](O)CN2C(=O)[C@H](c2cc(OCCN3CCC(O[C@H]4C[C@H](Oc5cc(N6C7CCC6CN(c6cc(-c8ccccc8O)nnc6N)C7)ccn5)C4)CC3)no2)C(C)C)cc1` [compound 184, (2S,4R)-1-((2S)-2-(3-(2-(4-((1r,3S)-3-((4-(3-(3-amino-6-(2-hydroxyphenyl)pyridazin-4-yl)-3,8-diazabicyclo[3.2.1]octan-8-yl)pyridin-2-yl)oxy)cyclobutoxy)piperidin-1-yl)ethoxy)isoxazol-5-yl)-3-methylbutanoyl)-4-hydroxy-N-((S)-1-(4-(4-(methoxymethyl)thiazol-5-yl)phenyl)ethyl)pyrrolidine-2-carboxamide], the DC50 was above 30 nM.
Turning to `COCc1ncsc1-c1ccc([C@H](C)NC(=O)[C@@H]2C[C@@H](O)CN2C(=O)[C@@H](c2cc(OCCN3CCC(O[C@H]4C[C@H](Oc5cc(N6C7CCC6CN(c6cc(-c8ccccc8O)nnc6N)C7)ccn5)C4)CC3)no2)C(C)C)cc1` [compound 185, (2S,4R)-1-((2R)-2-(3-(2-(4-((1r,3R)-3-((4-(3-(3-amino-6-(2-hydroxyphenyl)pyridazin-4-yl)-3,8-diazabicyclo[3.2.1]octan-8-yl)pyridin-2-yl)oxy)cyclobutoxy)piperidin-1-yl)ethoxy)isoxazol-5-yl)-3-methylbutanoyl)-4-hydroxy-N-((S)-1-(4-(4-(methoxymethyl)thiazol-5-yl)phenyl)ethyl)pyrrolidine-2-carboxamide], the DC50 is below 2.5 nM and the Dmax was above 75%.
`Cc1ncsc1-c1ccc([C@H](C)NC(=O)[C@@H]2C[C@@H](O)CN2C(=O)[C@H](c2cc(OC/C=C/c3ccc(O[C@H]4C[C@H](Oc5cc(N6C7CCC6CN(c6cc(-c8ccccc8O)nnc6N)C7)ccn5)C4)cn3)no2)C(C)C)cc1` [compound 186, (2S,4R)-1-((2S)-2-(3-(((E)-3-(5-((1r,3S)-3-((4-(3-(3-amino-6-(2-hydroxyphenyl)pyridazin-4-yl)-3,8-diazabicyclo[3.2.1]octan-8-yl)pyridin-2-yl)oxy)cyclobutoxy)pyridin-2-yl)allyl)oxy)isoxazol-5-yl)-3-methylbutanoyl)-4-hydroxy-N-((S)-1-(4-(4-methylthiazol-5-yl)phenyl)ethyl)pyrrolidine-2-carboxamide]: the DC50 was 10 to 30 nM and the Dmax was above 75%.
On to `Cc1ncsc1-c1ccc([C@H](C)NC(=O)[C@@H]2C[C@@H](O)CN2C(=O)[C@H](c2cc(OCCN3CCN(CC#CCN4CCOC5(CCN(c6cc(-c7ccccc7O)nnc6N)CC5)C4)CC3)no2)C(C)C)cc1` [compound 187, (2S,4R)-1-((S)-2-(3-(2-(4-(4-(9-(3-amino-6-(2-hydroxyphenyl)pyridazin-4-yl)-1-oxa-4,9-diazaspiro[5.5]undecan-4-yl)but-2-yn-1-yl)piperazin-1-yl)ethoxy)isoxazol-5-yl)-3-methylbutanoyl)-4-hydroxy-N-((S)-1-(4-(4-methylthiazol-5-yl)phenyl)ethyl)pyrrolidine-2-carboxamide], for which the DC50 was above 30 nM.
In the case of `Cc1ncsc1-c1ccc([C@H](C)NC(=O)[C@@H]2C[C@@H](O)CN2C(=O)[C@@H](c2cc(OCCN3CCN(CC#CCN4CCOC5(CCN(c6cc(-c7ccccc7O)nnc6N)CC5)C4)CC3)no2)C(C)C)cc1` [compound 188, (2S,4R)-1-((R)-2-(3-(2-(4-(4-(9-(3-amino-6-(2-hydroxyphenyl)pyridazin-4-yl)-1-oxa-4,9-diazaspiro[5.5]undecan-4-yl)but-2-yn-1-yl)piperazin-1-yl)ethoxy)isoxazol-5-yl)-3-methylbutanoyl)-4-hydroxy-N-((S)-1-(4-(4-methylthiazol-5-yl)phenyl)ethyl)pyrrolidine-2-carboxamide], the DC50 is below 2.5 nM and the Dmax is above 75%.
Regarding `Cc1ncsc1-c1ccc([C@H](C)NC(=O)[C@@H]2C[C@@H](O)CN2C(=O)[C@@H](c2cc(OCCN3CCC(O[C@H]4C[C@H](OCCn5cc(-c6cc(-c7ccccc7O)nnc6N)cn5)C4)CC3)no2)C(C)C)cc1` [compound 189, (2S,4R)-1-((R)-2-(3-(2-(4-((1r,3R)-3-(2-(4-(3-amino-6-(2-hydroxyphenyl)pyridazin-4-yl)-1H-pyrazol-1-yl)ethoxy)cyclobutoxy)piperidin-1-yl)ethoxy)isoxazol-5-yl)-3-methylbutanoyl)-4-hydroxy-N-((S)-1-(4-(4-methylthiazol-5-yl)phenyl)ethyl)pyrrolidine-2-carboxamide], the DC50 was below 2.5 nM and the Dmax was above 75%.
In the case of `Cc1ncsc1-c1ccc([C@H](C)NC(=O)[C@@H]2C[C@@H](O)CN2C(=O)[C@H](c2cc(CCCN3CCC(O[C@H]4C[C@H](Oc5cc(N6C7CCC6CN(c6cc(-c8ccccc8O)nnc6N)C7)ccn5)C4)CC3)no2)C(C)C)cc1` [compound 190, (2S,4R)-1-((2S)-2-(3-(3-(4-((1r,3S)-3-((4-(3-(3-amino-6-(2-hydroxyphenyl)pyridazin-4-yl)-3,8-diazabicyclo[3.2.1]octan-8-yl)pyridin-2-yl)oxy)cyclobutoxy)piperidin-1-yl)propyl)isoxazol-5-yl)-3-methylbutanoyl)-4-hydroxy-N-((S)-1-(4-(4-methylthiazol-5-yl)phenyl)ethyl)pyrrolidine-2-carboxamide], the DC50 was above 30 nM.
Turning to `Cc1ncsc1-c1ccc([C@H](C)NC(=O)[C@@H]2C[C@@H](O)CN2C(=O)[C@@H](c2cc(CCCN3CCC(O[C@H]4C[C@H](Oc5cc(N6C7CCC6CN(c6cc(-c8ccccc8O)nnc6N)C7)ccn5)C4)CC3)no2)C(C)C)cc1` [compound 191, (2S,4R)-1-((2R)-2-(3-(3-(4-((1r,3R)-3-((4-(3-(3-amino-6-(2-hydroxyphenyl)pyridazin-4-yl)-3,8-diazabicyclo[3.2.1]octan-8-yl)pyridin-2-yl)oxy)cyclobutoxy)piperidin-1-yl)propyl)isoxazol-5-yl)-3-methylbutanoyl)-4-hydroxy-N-((S)-1-(4-(4-methylthiazol-5-yl)phenyl)ethyl)pyrrolidine-2-carboxamide], the DC50 was below 2.5 nM and the Dmax was above 75%.
Take `Cc1ncsc1-c1ccc([C@H](C)NC(=O)[C@@H]2C[C@@H](O)CN2C(=O)C(c2cc(OCCN3CCN(CCO[C@H]4C[C@H](OCCN5CCOC6(CCN(c7cc(-c8ccccc8O)nnc7N)CC6)C5)C4)CC3)no2)C(C)C)cc1` (stereo partly drawn) [compound 192, (2S,4R)-1-(2-(3-(2-(4-(2-((1r,3r)-3-(2-(9-(3-amino-6-(2-hydroxyphenyl)pyridazin-4-yl)-1-oxa-4,9-diazaspiro[5.5]undecan-4-yl)ethoxy)cyclobutoxy)ethyl)piperazin-1-yl)ethoxy)isoxazol-5-yl)-3-methylbutanoyl)-4-hydroxy-N-((S)-1-(4-(4-methylthiazol-5-yl)phenyl)ethyl)pyrrolidine-2-carboxamide]: the DC50 is below 2.5 nM and the Dmax was above 75%.
Turning to `Cc1cnn(C)c1-c1ccc([C@H](C)NC(=O)[C@@H]2C[C@@H](O)CN2C(=O)[C@H](c2cc(OCCN3CCN(CCOc4cc(N5C6CCC5CN(c5cc(-c7ccccc7O)nnc5N)C6)ccn4)CC3)no2)C(C)C)cc1` [compound 193, (2S,4R)-1-((2S)-2-(3-(2-(4-(2-((4-(3-(3-amino-6-(2-hydroxyphenyl)pyridazin-4-yl)-3,8-diazabicyclo[3.2.1]octan-8-yl)pyridin-2-yl)oxy)ethyl)piperazin-1-yl)ethoxy)isoxazol-5-yl)-3-methylbutanoyl)-N-((S)-1-(4-(1,4-dimethyl-1H-pyrazol-5-yl)phenyl)ethyl)-4-hydroxypyrrolidine-2-carboxamide], the DC50 was above 30 nM and the Dmax was above 75%.
Turning to `Cc1ncsc1-c1ccc([C@H](C)NC(=O)[C@@H]2C[C@@H](O)CN2C(=O)[C@H](c2cc(N3CCN(CCN4CCC(O[C@H]5C[C@H](Oc6cc(N7C8CCC7CN(c7cc(-c9ccccc9O)nnc7N)C8)ccn6)C5)CC4)CC3)no2)C(C)C)cc1` [compound 195, (2S,4R)-1-((2S)-2-(3-(4-(2-(4-((1r,3r)-3-((4-(3-(3-amino-6-(2-hydroxyphenyl)pyridazin-4-yl)-3,8-diazabicyclo[3.2.1]octan-8-yl)pyridin-2-yl)oxy)cyclobutoxy)piperidin-1-yl)ethyl)piperazin-1-yl)isoxazol-5-yl)-3-methylbutanoyl)-4-hydroxy-N-((S)-1-(4-(4-methylthiazol-5-yl)phenyl)ethyl)pyrrolidine-2-carboxamide], the DC50 was above 30 nM and the Dmax was above 75%.

(Values after US12539292B2, “BRM targeting compounds and associated methods of use” (Arvinas Operations, Inc., priority 2018, dated 2026).)
